Measured values reported in patent publication US20080194585A1, “Fungicidal Pyrazine Derivatives” (priority 2005, published 2008).
Marks after values point to notes of the source that are not given here.

Experiments:
Plasmopara viticola = experiment: Test D: grape downy mildew, spray after inoculation of grape seedlings; type: in vivo
Text: Upon removal, disease ratings were made. […] A dash (-) indicates no test results.

Phytophthora infestans = experiment: whole plant or invertebrate; type: in vivo
Septoria tritici = experiment: Test J: wheat leaf blotch, preventive spray on wheat seedlings; type: in vivo
Text: A dash (-) indicates no test results.

fusarium graminearium = experiment: Test I: wheat head scab, preventive spray on wheat seedlings
Procedure: (the causal agent of wheat head scab) and incubated in a saturated atmosphere at 20° C. for 72 h, and then moved to a growth chamber at 22° C. for 5 days, after which disease ratings were made.

[1] = tested on: Puccinia recondita f. sp. tritici; experiment: Test K: wheat leaf rust, preventive spray on wheat seedlings
Botrytis cinerea = experiment: Test E: tomato botrytis, preventive spray on tomato seedlings
Septoria nodorum = experiment: Test H: wheat glum blotch, preventive spray on wheat seedlings
Procedure: (the causal agent of wheat glum blotch) and incubated in a saturated atmosphere at 20° C. for 48 h, and then moved to a growth chamber at 22° C. for 5 days, after which disease ratings were made.

[2] = tested on: Erysiphe graminis f. sp. tritici; experiment: Test L: wheat powdery mildew, preventive spray on wheat seedlings
Pythium aphanidermatum = experiment: Test A: bluegrass pythium blight, preventive spray on bluegrass seedlings
Rhizoctonia oryzae = experiment: Test G: turf brown patch, preventive spray on creeping bent grass seedlings
Procedure: (the causal agent of turf brown patch) and incubated in a saturated atmosphere at 27° C. for 24 h, and then moved to a growth chamber at 27° C. for 5 days, after which disease ratings were made.

[3] = tested on: Colletotrichum orbiculare; experiment: Test B: cucumber Colletotrichum anthracnose, preventive spray on cucumber seedlings

Structure (SMILES) | Test D disease control rating (Plasmopara viticola; 40 ppm (*)) | Test F disease control rating (Phytophthora infestans; 40 ppm (*)) | Test J disease control rating (Septoria tritici; 40 ppm (*)) | Test I disease control rating (fusarium graminearium; 40 ppm (*)) | Test K disease control rating ([1]; 40 ppm (*)) | Test E disease control rating (Botrytis cinerea; 40 ppm (*)) | Test H disease control rating (Septoria nodorum; 40 ppm (*)) | Test L disease control rating ([2]; 40 ppm (*)) | Test A disease control rating (Pythium aphanidermatum; 40 ppm (*)) | Test G disease control rating (Rhizoctonia oryzae; 40 ppm (*)) | Test B disease control rating ([3]; 40 ppm (*)) | also measured
CCC(C)Cn1c(-c2ccc(F)cc2Cl)c(Cl)nc(-n2cc(C)cn2)c1=O (stereo not shown) [compound 169] | 0* % | 0* % | 100* % | 0* % | 92* % | 99* % | 97* % | 75* % | 0* % | 0* % | 98* % | 
CC(C)Cn1c(-c2c(F)c(F)c(F)c(F)c2F)c(Cl)nc(-n2cccn2)c1=O [compound 171] | 0* % | 0* % | 52* % | 0* % | 96* % | 100* % | 82* % | 99* % | 0* % | 95* % |  | Test B disease control rating ([3]; 200 ppm): 0%
CC(C)Cn1c(-c2c(F)cccc2F)c(Cl)nc(-c2cccnc2)c1=O [compound 178] | 0* % | 0* % | 5* % | 0* % | 0* % | 0* % | 0* % | 0* % | 0* % | 0* % | 0* % | 
CCCC(C)n1c(-c2c(F)cccc2F)c(Cl)nc(-n2cccn2)c1=O (stereo not shown) [compound 180] | 0* % | 0* % | 98* % | 0* % | 100* % | 99* % | 99* % | 95* % | 0* % | 94* % | 66* % | 
CCC(CC)n1c(-c2c(F)cccc2F)c(Cl)nc(-n2cccn2)c1=O [compound 181] | 0* % | 0* % | 100* % | 0* % | 100* % | 99* % | 99* % | 98* % | 0* % | 100* % | 51* % | 
CCC(CC)Cn1c(-c2c(F)cccc2F)c(Cl)nc(-n2cccn2)c1=O [compound 183] | 0* % | 0* % | 100* % | 0* % | 99* % | 100* % | 89* % | 92* % | 0* % | 81* % | 0* % | 
CCn1c(-c2c(F)cccc2F)c(Cl)nc(-n2cccn2)c1=O [compound 184] | 67* % | 0* % | 96* % | 0* % | 98* % | 100* % | 100* % | 98* % | 0* % | 88* % | 0* % | 
C#CCn1c(-c2c(F)cccc2F)c(Cl)nc(-n2cccn2)c1=O [compound 186] | 0* % | 0* % | 92* % | 0* % | 100* % | 99* % | 100* % | 90* % | 0* % | 67* % | 16* % | 
O=c1c(-n2cccn2)nc(Cl)c(-c2c(F)cccc2F)n1Cc1ccco1 [compound 187] | 0* % | 0* % | 77* % | 0* % | 91* % | 96* % | 0* % | 0* % | 0* % | 0* % | 0* % | 
O=c1c(-n2cncn2)nc(Cl)c(-c2c(F)cccc2F)n1Cc1ccco1 [compound 188] | 0* % | 0* % | 23* % | 0* % | 0* % | 56* % | 0* % | 0* % | 0* % | 0* % | 0* % | 
N#Cc1nc(Cl)c(-c2c(F)cccc2F)n(Cc2ccco2)c1=O [compound 189] | 0* % | 0* % | 15* % | 0* % | 0* % | 0* % | 0* % | 0* % | 0* % | 0* % | 0* % | 
CC(C)Cn1c(-c2c(F)cccc2F)c(Cl)nc(-c2cnc3ccccn23)c1=O [compound 190] |  |  |  |  |  |  |  |  |  |  |  | Test D disease control rating (Plasmopara viticola; 200 ppm): 0%; Test F disease control rating (Phytophthora infestans; 200 ppm): 0%; Test J disease control rating (Septoria tritici; 200 ppm): 0%; Test I disease control rating (fusarium graminearium; 200 ppm): 0%; Test K disease control rating ([1]; 200 ppm): 0%; Test E disease control rating (Botrytis cinerea; 200 ppm): 0%; Test H disease control rating (Septoria nodorum; 200 ppm): 0%; Test L disease control rating ([2]; 200 ppm): 0%; Test A disease control rating (Pythium aphanidermatum; 200 ppm): 0%; Test G disease control rating (Rhizoctonia oryzae; 200 ppm): 0%; Test B disease control rating ([3]; 200 ppm): 0%
CCC(C)Cn1c(-c2c(F)cccc2F)c(Cl)nc(-n2nccn2)c1=O (stereo not shown) [compound 191] |  |  |  |  |  |  |  |  |  |  |  | Test D disease control rating (Plasmopara viticola; 200 ppm): 0%; Test F disease control rating (Phytophthora infestans; 200 ppm): 0%; Test J disease control rating (Septoria tritici; 200 ppm): 36%; Test I disease control rating (fusarium graminearium; 200 ppm): 0%; Test K disease control rating ([1]; 200 ppm): 86%; Test E disease control rating (Botrytis cinerea; 200 ppm): 97%; Test H disease control rating (Septoria nodorum; 200 ppm): 0%; Test L disease control rating ([2]; 200 ppm): 0%; Test A disease control rating (Pythium aphanidermatum; 200 ppm): 0%; Test G disease control rating (Rhizoctonia oryzae; 200 ppm): 0%; Test B disease control rating ([3]; 200 ppm): 0%
CC(C)Cn1c(-c2ccccc2Cl)c(Cl)nc(-n2cncn2)c1=O [compound 192] | 0* % | 0* % | 98* % | 0* % | 89* % | 99* % | 0* % | 0* % | 0* % | 31* % | 0* % | 
